# Laboratory results reported in US20260048145A1, “COMPOSITIONS AND METHODS FOR TREATING DRUG ADDICTION” (The Children's Medical Center Corporation, priority 2022, published 2026).
# B1: Tac2-shRNA: AAV construct expressing small hairpin RNA for mouse Tac2 gene (SEQ ID NO: 3, 4) (nucleic acid, listed as Mus musculus)
# sense: GATCCGCCGCCTCAACCCCATAGCAATTAGAAGCTTGTAATTGCTATGGGGTTGAGGCTTTTTTT
# Tests used:
# NAc Tac2+ neurons [1] = assay: Single-cell calcium imaging during cocaine-conditioned place preference; format: in vivo, mice; conditions: post-conditioning
# Description: Next, the dynamics of Tac2 neuronal activity was analyzed during cocaine reward-contextual association. To this end, single-cell calcium imaging was applied to a cocaine-conditioned place preference (CPP) test (FIG. 3A). In the pre-conditioning session, mice were allowed to freely explore the two chambers with differential contextual patterns while calcium signal being recorded. In the conditioning sessions, mice were given alternate saline and cocaine (15 mg/kg) injections (6 hours apart) and were confined to a specific chamber paired with saline or cocaine. In the post-conditioning session, mice were again allowed to freely explore the two chambers while calcium signal being recorded (FIG. 3A). […] After extracting the calcium signal traces, and corresponding calcium signal transients of individual neurons in pre-conditioning and post-conditioning sessions, signal traces or transient frequencies were compared during the periods when mice are in saline-coupled chamber or cocaine-coupled chamber (staying time>5 seconds). […] To further validate these findings, calcium activity traces were analyzed when mice stayed in the saline chamber or cocaine chamber. […] Moreover, by focusing on the short period around the mice entering the cocaine chamber (−5 seconds to 5 seconds, regarding the entering as 0 second), it was determined that the neuronal activity of the cocaine chamber excited neurons (neurons with […] calcium signal in cocaine chamber) increased rapidly when mice entered the cocaine chamber, while the cocaine chamber inhibited neurons (neurons with […] calcium signal in cocaine chamber) decreased their activity when mice entered the cocaine chamber (FIGS. 3F-3G).
# Custom-made two-compartment CPP chambers (50×25×25 cm, L×D×H) were used with visual cues: the floor and the walls of one chamber were decorated with black horizontal stripes and the other chamber was decorated with yellow diagonal stripes. The modified cocaine-CPP consists of three sessions. […] The time spent in different chambers was recorded, the less preferred chamber was assigned as the cocaine chamber and used to condition cocaine injections, while the other chamber was assigned as the saline chamber and used to condition saline injections. […] Finally, the next day following conditioning, in the post-condition recording session, calcium activity of mice was again recorded while freely exploring the two chambers for 15 minutes. The mouse trajectories were recorded using a webcam (Logitech) with top view, and the time when the mice staying or entering chambers was analyzed using Etho Vision XT 11 (Noldus) and was also manually inspected. […]
# NAc Tac2+ neurons [2] = assay: Single-cell calcium imaging of Tac2+ neurons following acute cocaine injection; format: in vivo, mice; conditions: for recorded Tac2+ neurons showing decreased activity / recorded Tac2+ neurons showing increased activity: cocaine 15 mg/kg i.p.
# From the text: To explore a potential role for Tac2^+ neurons in drug-related behavior, Tac2 neuronal activity was monitored using single-cell calcium imaging upon psychostimulant drug (cocaine) treatment. To this end, GCaMP6m, which reports calcium fluctuations and serves as a proxy for neuronal activity, was virally delivered into the NAc of Tac2-Cre mice using known techniques^41, and the fluorescence signal was monitored by a skull-attached miniaturized microscope through a gradient-index (GRIN) lens implanted above the virus injection site (FIG. 2B, FIGS. 1C-1D). […] After extracting calcium signal traces and corresponding calcium signal transients of individual neurons from raw imaging video (FIG. 2C, FIG. 1E), the Tac2 neuronal response to saline and cocaine administration was analyzed. The calcium transient frequency from 6 mice (saline: 361 neurons, cocaine 356 neurons) were sorted and presented as heatmaps (FIG. 2D). […] The neuronal activity of cocaine excited/inhibited Tac2^+ neurons in the initial phase were substantially altered following cocaine injection and later partially recovered in the decay phase (FIG. 2I). To further validate these findings, calcium activity traces were analyzed before and after saline or cocaine injection. 3.0-fold more cocaine inhibited neurons than cocaine excited neurons in the initial phase (FIGS. 1F-1H).
# Two weeks after GRIN lens implantation surgery, a baseplate was implanted to mount the miniature microscope and to check the fluorescence signal. Freely moving in vivo imaging can be performed after the nVoke microscope (Inscopix) is attached to the fixed baseplate. All recordings were made at 10 frames per second, LED intensities were 0.6˜1.2 mW, and gain (1.5×) was used. The calcium traces were extracted using Inscopix Data Processing Software (version 1.6, Inscopix). The raw recording videos were cropped, spatially down-sampled (2×), spatially filtered (cut-offs: low 0.005 pixel^−1, high 0.500 pixel^−1), and motion-corrected (using a reference frame from the input movie). The spatial location of individual neurons and their associated calcium activity signals were identified using the extended constrained non-negative matrix factorization (CNMF-E) CNMF-c algorithm^53,54 and outputted temporal traces as dF over noise. The identified neurons were manually checked to exclude overlapping neurons, blood vessels, or fluorescent debris moving in and out of focus. The calcium signal traces were further deconvolved using OASIS (online active set method to infer spikes) methods to estimate underlying calcium signal transients. The data matrix containing calcium signal traces and calcium signal transients were subjected to custom MATLAB code for further analysis.
# Mice were tested in the homecages and were pre-habituated in the test room and they received 3-day saline injection to reduce stress. On day 1, mice were attached with nVoke microscope 30 minutes before experiment. Prior to injection, 10 minute baseline was recorded, then mice were intraperitoneally injected with saline, and a 10 minute recording was performed after the injection. On day 2, mice were again attached with n Voke microscope, and recorded for 10 minute baseline. Then mice were injected with cocaine (15 mg/kg) intraperitoneally. The post-injection initial phase (0-10 minutes) and decay phase (50-60 minutes) were recorded. Two data sets of neuronal activity were used: calcium signal traces over time or calcium signal transients over time, to analyze treatment (saline or cocaine injection) responsive neurons (excited or inhibited by treatment), 10-minute windows of pre- and post-injection were compared. For saline injection responsive neurons, saline (−10-0 minutes) and saline (0-10 minutes) responses of the two groups were compared. For cocaine injection responsive neurons, the initial phase (0-10 minutes) and the decay phase (50-60 minutes) were compared with the pre-injection phase (−10-0 minutes). […]
# [3] = after administration; cited from earlier work
# [4] = test system: hM4Di-expressing Tac2+ neurons; assay: cFos induction after CNO following cocaine exposure, chemogenetic inhibition; format: in vivo, mice; conditions: CNO 5 mg/kg i.p.
# [5] = test system: hM3Dq-expressing Tac2+ neurons; assay: cFos induction after CNO, chemogenetic activation; format: in vivo, mice; conditions: CNO 2 mg/kg i.p.
# Description: Mice were transcardially perfused with PBS followed by 4% paraformaldehyde. Brains were then placed in a 30% sucrose solution for 2 days. The brains were frozen in Optimal Cutting Temperature (OCT) embedding media and 16 μm (for FISH) or 40 μm (for IF) coronal sections were cut with a vibratome (Leica, no. CM3050 S). For FISH experiments, the slices were mounted on SuperFrost Plus slides, and air dried. The multi-color FISH experiments were performed following the instructions of RNAscope Fluorescent Multiplex Assay (ACD Bioscience). For IF, cryostat sections were collected and incubated overnight with blocking solution (1×PBS containing 5% goat serum, 2.5% BSA, and 0.1% Triton X-100), and then treated with the following primary antibodies, diluted with blocking solution, for 1 day at 4° C.: rabbit anti-cFos (1:2000, Synaptic systems, #226003), chicken anti-GFP (1:2000, Aves Labs, no. GFP-1010), and chicken anti-mCherry (1:2000, Novus Biologicals, no. NBP2-25158). Samples were then washed three times with washing buffer (1×PBS containing 0.1% Triton X-100) and incubated with the Alexa Fluor conjugated secondary antibodies for 2 h at room temperature. The sections were mounted and imaged using a Zeiss LSM800 confocal microscope or an Olympus VS120 Slide Scanning System. […]
# [6] = test system: Tac2+ neurons (hM3Dq / hM4Di); assay: Basal and cocaine-induced locomotion with chemogenetic manipulation of Tac2+ neurons; format: in vivo; conditions: CNO; hM3Dq or hM4Di mice; 1-hour post-treatment
# Description: The experiment was conducted in an 8-chamber activity monitor system (Med Associates). Each test chamber (ENV-510 boxes) consists of a 27 cm×27 cm square base and 24-cm walls. […] Activity Monitor software (Med Associates) was used to generate trajectory maps. The distance traveled in the arena, and time spent in the center part of the arena, were recorded and analyzed. After each test session, the chambers were cleaned thoroughly with 20% ethanol.
# The basal level of locomotion as well as cocaine-induced change of locomotor activity were assessed in the open field arena the same as the OFT. For chemogenetics experiments, 20 minutes after administration of either saline or CNO, mice were individually placed in the center of the test chamber, triggering the infra-red tracking system to record locomotor activity, as measured by the number of beam breaks. […] Different groups of mice were balanced across the 8 chambers to avoid potential environmental bias.
# [7] = test system: hM3Dq-expressing Tac2+ neurons; assay: Cocaine intravenous self-administration (cocaine-IVSA) with chemogenetic excitation; conditions: CNO 2 mg/kg
# [8] = test system: hM3Dq-expressing Tac2+ neurons; assay: Cocaine-CPP with chemogenetic excitation of Tac2+ neurons; format: in vivo; conditions: CNO 2 mg/kg plus cocaine 15 mg/kg; hM3Dq-expressing mice
# Description: (§1) To this end, a Cre-dependent AAV encoding a modified human M3 muscarinic receptor (hM3Dq) was introduced into NAc of Tac2-Cre mice (FIG. 5E). […] The cocaine-CPP test was then repeated, in which mice were conditioned with cocaine plus CNO in one chamber, while with saline in the other chamber. […] To test the effect of Tac2 neuronal inhibition on cocaine-CPP, a subthreshold cocaine CPP paradigm was applied, in which mice were conditioned with a lower dose of cocaine (10 mg/kg i.p.) in a shorter conditioning session (15-minutes per session)^10,46.
# (§2) A two-compartment CPP chamber was used with one compartment with grid rod style floor and the other with mesh style floor (Med Associates). Chamber size is 25×19×17 cm (L×D×H). Mice trajectories were tracked by infra-red photobeam detectors, and the travel distance and the duration the mice spent in the two compartments were recorded. […]
# (§3) For hM3Dq chemogenetics experiments, the Tac2-Cre mice were conditioned for two days to saline/saline injections in one chamber in the morning, and CNO (2 mg/kg)/cocaine (15 mg/kg) injection in the other in the afternoon (30 minutes confinement, 6 hours apart). […] The time spent in the cocaine-coupled chambers was recorded, and the CPP scores were calculated by subtracting the time spent in the pre-conditioning phase from the time spent in the post-conditioning phase.
# [9] = test system: hM4Di-expressing Tac2+ neurons; assay: Cocaine intravenous self-administration (cocaine-IVSA) with chemogenetic inhibition; conditions: CNO 5 mg/kg
# [10] = test system: hM4Di-expressing Tac2+ neurons; assay: Subthreshold cocaine-CPP with chemogenetic inhibition of Tac2+ neurons; format: in vivo, mice; conditions: CNO 5 mg/kg i.p.; cocaine 10 mg/kg i.p., 15-minutes sessions
# Description: as §1, §2, §3
# Tac2 mRNA = assay: Cocaine-CPP after shRNA knock-down of Tac2 in NAc; format: in vivo, mice; conditions: AAV Tac2 shRNA vs control shRNA, bilateral NAc injection
# Description: Numbers were calculated by summating Tac2^+ cells in serial 3 slides of the NAc region of individual mice (˜Bregma+1.2). […] Mice were subjected to 2-days conditioning, with each morning given saline injection followed by confined to saline-coupled chamber for 30 minutes, and in the afternoon, mice were given cocaine injection followed by confined to cocaine chamber for 30 minutes. Left: time spent in the cocaine-paired chambers pre- and post-conditioning, ****, p<0.0001, paired t-test. Right: the CPP scores were calculated by subtracting the time spent in pre-conditioning phase from the time spent in post-conditioning phase, ns, p=0.0975, unpaired t-test. […] FIGS. 10G-10I show dose-dependent response under cocaine-IVSA of Tac2 knockdown mice. The numbers of lever presses (FIG. 10G). Lever accuracy (FIG. 10H), and numbers of infusions (FIG. 10I) are shown. Data in FIGS. 10B-10I are presented as mean±SEM.
# Using calcium recording and neuronal activity manipulation, a causal relationship has been established between Tac2 neuronal activity and cocaine-associated behaviors (CPP and IVSA). It was then explored how Tac2^+ neurons might execute their functions. […]
# Small hairpin RNA (shRNA) for mouse Tac2 gene (NM_009312.2) were selected based on previous studies^50. […] The AAV viruses were injected into NAc regions and knock-down efficiency were evaluated by Tac2 RNA FISH.
# [11] = decay phase 50-60 minutes, calcium transient frequency
# [12] = initial phase 0-10 minutes, calcium transient frequency, 356 neurons, 6 mice
molecule,measurement,setting,value
COC(=O)[C@H]1[C@@H](OC(=O)c2ccccc2)C[C@@H]2CC[C@H]1N2C [cocaine],neurons excited in the cocaine chamber,"NAc Tac2+ neurons [1]; calcium activity traces, 40 of 370",10.8%
same,neurons inhibited in the cocaine chamber,"NAc Tac2+ neurons [1]; calcium activity traces, 59 of 370",16.0%
same,Tac2+ neurons with elevated activity in the cocaine chamber,"NAc Tac2+ neurons [1]; calcium transient frequency, 16 of 370",4.3%
same,Tac2+ neurons with reduced activity in the cocaine chamber,"NAc Tac2+ neurons [1]; calcium transient frequency, 62 of 370",16.8%
same,initial phase cocaine excited neurons still excited in the decay phase,NAc Tac2+ neurons [2]; 29/49 neurons,59.2%
same,initial phase cocaine inhibited neurons still inhibited in the decay phase,NAc Tac2+ neurons [2]; 30/117 neurons,25.6%
same,recorded Tac2+ neurons showing decreased activity,NAc Tac2+ neurons [2]; [11],14.9%
same,recorded Tac2+ neurons showing increased activity,NAc Tac2+ neurons [2]; [11],11.5%
same,recorded Tac2+ neurons showing decreased activity,NAc Tac2+ neurons [2]; [12],32.9%
same,recorded Tac2+ neurons showing increased activity,NAc Tac2+ neurons [2]; [12],13.8%
same,cocaine inhibited neurons compared to cocaine excited neurons,"NAc Tac2+ neurons [2]; initial phase, calcium activity traces",3.0 fold
same,Tac2+ neurons inhibited by cocaine compared to those excited,"NAc Tac2+ neurons [2]; initial phase, calcium transient frequency",2.4 fold
same,decay of cocaine levels in brain and plasma,[3],decay one hour later
same,time to peak of cocaine levels in brain and plasma,[3],≤ 10 min
"C[N+]1([O-])CCN(C2=Nc3cc(Cl)ccc3Nc3ccccc32)CC1 [CNO, clozapine-N-oxide]",cFos induction in hM4Di-expressing neurons following cocaine exposure,[4],significantly decreased
same,cFos induction in hM3Dq-expressing neurons,[5],resulted in cFos induction
same,cFos induction in mCherry-expressing (control) neurons,[5],not in the mCherry-expressing neurons
same,basal locomotion,[6],affected neither basal locomotion
same,cocaine-induced hyperlocomotion,[6],nor cocaine-induced hyperlocomotion
same,"cocaine infusions, hM3Dq vs mCherry group",[7],fewer cocaine infusions
same,"lever accuracy, hM3Dq vs mCherry group",[7]; 0.33 mg/kg/infusion,reduced lever accuracy
same,"lever presses, hM3Dq vs mCherry group","[7]; cocaine 0.03, 0.1, 0.3, 1 mg/kg/infusion",significantly fewer lever presses
same,cocaine-induced CPP,[8],completely abolished
same,"cocaine infusions, hM4Di vs mCherry group",[9],significantly lower number of cocaine infusions
same,"lever presses, hM4Di vs mCherry group",[9],significantly higher number of lever presses
same,"lever accuracy, hM4Di vs mCherry group",[9]; 0.33 mg/kg/infusion,comparable lever accuracy
same,cocaine CPP in hM4Di-expressing vs mCherry-expressing mice,[10],significantly higher
B1,cocaine-induced place preference,Tac2 mRNA,neither affected
